{
  "source": "patent US10752881B2",
  "about": "“Trans-differentiation of differentiation cells” (Helmholtz Zentrum München-Deutsches Forschungszentrum für …, priority 2014, dated 2020)",
  "key": {"[1]": {"test_system": "astroglial cells transfected with Ascl1-RFP", "assay": "Lipid peroxidation (C11-Bodipy staining) and glutathione detection during reprogramming", "type": "cell-based, mouse", "settings": "co-transfected with Ascl1, 2 DPT", "from_the_text": "C, Micrographs show oxidized lipids (C11-Bodipy staining) at 2 DPT in astroglial cells transfected with Ascl1-REP alone or in combination with EE-Bcl-2 or A-Bcl-2. Note higher levels of oxidation in cells transfected with only Ascl1 or Ascl1+EE-BCl-2 (black arrows) compare to cells co-transfected with Ascl1+A-Bcl-2 (black arrowheads). High magnification pictures show partial co-localization of C11-Bodipy staining and DAPI in Ascl1-expressing cells contrarily to cells co-transfected with Ascl1+EE-Bcl-2 (see arrows).\nD, Pictures show glutathione (GSH) detection of same cells shown in C. Cells with normal or increased levels of GSH are depicted by arrowheads and arrows respectively.\nThese observations open the question of why EE-Bcl-2 has no effect in neuronal reprogramming while A-Bcl-2 has.\nFor the detection of oxidative stress we used CellROX green Reagent (Life technologies, C10444) according with the described protocol and fluorescence was detected by microscope (see below)."}, "MEFs": {"test_system": "MEFs", "settings": "MyoD + A-Bcl-2 vs MyoD/GFP"}, "[2]": {"test_system": "postnatal mouse astrocytes", "settings": "co-transfected with Ascl1-RFP, 4 days", "description": "(C) Histogram of astroglial cultures transfected with Ascl1-RFP-encoding plasmid alone or in combination with WT-Bcl-2, EE-Bcl-2 or A-Bcl-2 at 4 days post-transfection (DPT). The number of transfected cells (RFP+) at final time point (4 DPT) was normalized to the initial number of transfected cells (1 DPT) to calculate the % of survival. The % of neuronal conversion was analysed by β-III-tubulin immunostaining and normalized to total number of RFP+ cells at the end of the experiment. Error bars indicate ±SD. *p<0.05, **p<0.01; ANOVA Tukeys post-test.\nA, Quantifications at 5 DPT (days post-transfection) showing the effect of the inhibitor of ferroptosis, α-toc and the inhibitor of apoptosis, ZVAD in survival/efficiency of conversion of astroglial cells transfected with Ascl1-RFP.\nC, Percentage of neurons in astroglial cells transfected with Ascl1-encoding plasmid alone or in combination with Bcl-2 and/or Vdr at 5 DPT after 4 days of treatment with calcitriol or untreated.\nAfter removal of the meninges, grey matter tissue was dissected from P5-P7 cerebral cortex of C57BL/6J mice and dissociated mechanically. Subsequently, cells were centrifuged for 5 min at 1000 rpm, re-suspended, and plated in medium consisting of DMEM/F12 (Gibco), 3.5 mM glucose (Sigma), 10% fetal calf serum (Gibco), 5% horse serum (Gibco), penicillin/streptomycin (Gibco) and supplemented with B27 (Gibco), 10 ng/mL epidermal growth factor (EGF, Roche) and 10 ng/mL fibroblast growth factor 2 (FGF2, Roche). After one week expansion cells were harvested using trypsin/EDTA (Gibco) and plated onto poly-D-lysine (Sigma-Aldrich) coated glass coverslips in 24-well plates (BD Biosciences) or directly onto the plastic for time lapse experiments at a density of 60,000 cells per well in the same medium. After 24 hours cells were either transfected with plasmid or infected with retroviral vectors and after further 24 hours medium was changed to differentiation medium composed of DMEM/F12 high glucose with GlutaMAX, penicillin/streptomycin and B27 supplement (Gibco) to allow neuronal differentiation.\nFor transfection DNA-liposome complexes were prepared in Optimem medium (Invitrogen) using the retroviral plasmids described below and Lipofectamine 2000 (Invitrogen). Astrocyte cultures were exposed to DNA-liposome complexes at a concentration of 0.5 μg DNA per 400 μl of Optimem medium for 4 hours and cultured after that in the differentiation medium as above.\nCells were fixed in 4% paraformaldehyde (PFA) in phosphate-buffered saline (PBS) for 10 min at room temperature (RT), washed in PBS and pretreated in 0.5% Triton X-100 in PBS for 30 min, followed by incubation in 2% BSA and 0.5% Triton X-100 in PBS for 30 min. Primary antibodies were incubated on specimen overnight at 4° C. in 2% BSA, 0.5% Triton X-100 in PBS."}, "[3]": {"test_system": "Mouse embryonic fibroblasts (MEFs)", "assay": "Fibroblast-to-neuron reprogramming of MEFs with retroviral vectors, β-III-tubulin immunostaining", "type": "cell-based"}},
  "data": [
    {"substance": "A-Bcl-2: S70A recombinant Bcl-2 with reduced ability to interact with Bax, mimics the un-phosphorylated form", "values": [
      {"measurement": "effect on lipid peroxidation / oxidative stress (C11-Bodipy)", "setting": "[1]", "value": "very efficiently reducing oxidative stress"},
      {"measurement": "speed of conversion into skeletal muscle cells", "setting": "MEFs", "value": "converted much faster into skeletal muscle cells"},
      {"measurement": "effect on cell survival during reprogramming", "setting": "[2]", "value": "decreased survival compared to those transfected with WT-Bcl-2- or EE-Bcl-2-encoding plasmids"},
      {"measurement": "effect on proportion of neuronal conversion mediated by Ascl1", "setting": "[2]; β-III-tubulin", "value": "increased proportion of neurons induced from the transfected astrocytes"},
      {"measurement": "neuronal conversion in MEFs (β-III-tubulin)", "setting": "[3]; Ascl1-based retroviral vectors, 14 days after infection", "value": "> 75", "unit": "%"},
      {"measurement": "increase of proportion of neurons induced from MEFs", "setting": "[3]; Neurog2 + A-Bcl-2 vs Neurog2/RFP", "value": 6, "unit": "×"},
      {"measurement": "proportion of neurons induced from MEFs, of all infected cells", "setting": "[3]; Neurog2-based retroviral vectors, 15 days after infection", "value": 63, "unit": "%"}
    ]}
  ]
}
